Laboratory results published in the supplement of paper PMC10307832.

Key:
Assay in all cases: relative viability (nuclei count vs DMSO), 5 days (fraction); higher = more cells survive
[1] = compound: O=C(c1cc(Cc2n[nH]c(=O)c3ccccc23)ccc1F)N1CCN(C(=O)C2CC2)CC1 [Olaparib] + CC1(C)CCC(c2ccc(Cl)cc2)=C(CN2CCN(c3ccc(C(=O)NS(=O)(=O)c4ccc(N[C@H](CCN5CCOCC5)CSc5ccccc5)c(S(=O)(=O)C(F)(F)F)c4)cc3)CC2)C1 [Navitoclax] (partner 0.5 µM)
Summary of the method: (§1)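 Cells from lung cancer lines were seeded into 1536-well plates and, one day later, dosed by pin tool. Treatments were either a single drug or a fixed dose of an anchor drug with five library-drug doses (not always all listed) in √10 steps. After 5 days, nuclei were stained in a one-step fixation (final 0.05% Triton X-100, 1% formaldehyde, 1 ug/ml Hoechst) and counted on 4× images, and relative viability is the treated-to-vehicle nuclei ratio, as the median of duplicate plates.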

[2] = compound: C[C@@H](Oc1cc(-c2cnn(C3CCNCC3)c2)cnc1N)c1c(Cl)ccc(F)c1Cl [Crizotinib] + O=C(CCCCCCC(=O)Nc1ccccc1)NO [Vorinostat] (partner 1 µM)
Summary of the method: as §1

[3] = compound: O=C(c1cc(Cc2n[nH]c(=O)c3ccccc23)ccc1F)N1CCN(C(=O)C2CC2)CC1 [Olaparib] + Cc1nc(NC(=O)N2CCC[C@H]2C(N)=O)sc1-c1ccnc(C(C)(C)C(F)(F)F)c1 [Alpelisib] (partner 2 µM)
Summary of the method: as §1

[4] = compound: CC(C)C[C@H](NC(=O)[C@H](CCc1ccccc1)NC(=O)CN1CCOCC1)C(=O)N[C@@H](Cc1ccccc1)C(=O)N[C@@H](CC(C)C)C(=O)[C@@]1(C)CO1 [Carfilzomib] + C[C@@H](Oc1cc(-c2cnn(C3CCNCC3)c2)cnc1N)c1c(Cl)ccc(F)c1Cl [Crizotinib] (partner 1 µM)
Summary of the method: as §1

Cell Line | relative viability ([1]; first compound 0.08 µM) | relative viability ([1]; first compound 0.253 µM) | relative viability ([1]; first compound 2.53 µM) | relative viability ([1]; first compound 8 µM) | relative viability ([2]; first compound 0.01 µM) | relative viability ([2]; first compound 0.03162 µM) | relative viability ([2]; first compound 0.1 µM) | relative viability ([2]; first compound 0.3162 µM) | relative viability ([2]; first compound 1 µM) | relative viability ([3]; first compound 0.08 µM) | relative viability ([3]; first compound 0.253 µM) | relative viability ([3]; first compound 2.53 µM) | relative viability ([3]; first compound 8 µM) | relative viability ([4]; first compound 0.001 µM) | relative viability ([4]; first compound 0.003162 µM) | relative viability ([4]; first compound 0.01 µM) | relative viability ([4]; first compound 0.03162 µM) | relative viability ([4]; first compound 0.1 µM)
NCI-H1915 | 0.721 | 0.725 | 0.739 | 0.486 | 0.601 | 0.518 | 0.502 | 0.458 | 0.517 | 0.986 | 0.938 | 0.767 | 0.59 | 0.879 | 0.927 | 0.887 | 0.434 | 0.069
NCI-H1944 | 0.95 | 0.842 | 1.07 | 0.64 | 0.446 | 0.508 | 0.493 | 0.571 | 0.54 | 0.881 | 0.743 | 0.699 | 0.717 | 1.02 | 1.2 | 1.09 | 1.07 | 0.302
NCI-H1975 | 1.28 | 0.957 | 1.14 | 1.02 | 0.682 | 0.693 | 0.695 | 0.708 | 0.729 | 0.764 | 0.594 | 0.692 | 0.612 | 0.944 | 0.951 | 0.536 | 0.116 | 0.131
NCI-H1993 | 0.872 | 0.914 | 1.19 | 1.27 | 0.699 | 0.901 | 0.68 | 0.468 | 0.555 | 0.691 | 0.657 | 0.746 | 0.742 | 0.871 | 0.97 | 1.12 | 0.807 | 0.473
NCI-H2009 | 1.31 | 1.05 | 1.1 | 0.996 | 0.707 | 0.723 | 0.63 | 0.756 | 0.76 | 1.28 | 1.03 | 1.09 | 0.976 | 1.07 | 1.14 | 1.09 | 0.37 | 0.0428
NCI-H2023 | 1.05 | 0.973 | 0.959 | 0.787 | 0.573 | 0.8 | 0.568 | 0.453 | 0.621 | 0.64 | 0.512 | 0.58 | 0.501 | 0.666 | 0.64 | 0.733 | 0.375 | 0.0656
NCI-H2085 | 1.25 | 1.03 | 1.12 | 0.929 | 0.756 | 0.733 |  | 0.782 | 0.742 | 1.08 | 0.883 | 0.92 | 0.835 | 0.83 | 0.769 | 0.662 | 0.368 | 0.225
NCI-H2087 | 0.968 | 0.869 | 0.877 | 0.728 | 0.679 | 0.689 | 0.766 | 0.94 | 0.731 | 1.21 | 0.95 | 1.02 | 0.706 | 0.876 | 1.03 | 0.827 | 0.0787 | 0.091
NCI-H2126 | 0.875 | 0.824 | 0.749 | 0.853 | 0.636 | 0.835 | 0.682 | 0.371 |  | 0.794 | 0.743 | 0.712 | 0.728 | 0.98 | 1.07 | 0.989 | 1.01 | 0.707
NCI-H2170 | 0.551 | 0.533 | 0.53 | 0.448 |  | 0.838 | 0.746 | 0.795 | 0.828 | 0.846 | 0.838 | 0.849 | 0.718 | 1.1 | 1.32 | 1.33 | 0.528 | 0.2
NCI-H2228 | 1.14 | 0.809 | 0.707 | 0.587 | 0.46 | 0.843 | 0.402 | 0.57 | 0.683 | 0.746 | 0.657 | 0.78 | 0.534 | 0.49 | 0.389 | 0.666 | 0.149 | 0.17
